# Tests used:
# [1] = Transmission scattering light intensity test; type: physicochemical; details: 40 mL 0.1% (w/v) additive solution + 840 mg edaravone particles; for Dispersion State of Edaravone: stirred 30 minutes or more; for Transmission Scattering light Intensity ΔT %: TURBISCAN Tower, 25° C., height 39-40 mm, after 10 minutes
# Experimental: Further, here, the transmission scattering light intensity means a value obtained after 10 minutes after starting a measurement of a transmission scattering light intensity, the measurement being performed by filling 20 mL of the above liquid in a cylindrical sample bottle (inner diameter: 25 mm×outer diameter: 27.5 mm×height: 72 mm) and by measuring the transmission scattering light intensity at a height of 39-40 mm of the sample bottle using a TURBISCAN Tower (manufactured Formulaction) (25° C.).
# 0.1% (w/v) aqueous solutions of drug product additives described in the following table that are substances having a function capable of dispersing solid particles in a liquid were prepared at a room temperature.
# 40 mL of each of the aqueous solutions of the additives was added to 840 mg of edaravone particles (edaravone powder, D50: 37 μm, D90: 143 μm) and the mixture was stirred using a stirrer for 30 minutes or more, and a dispersed state of the edaravone particles was confirmed.
# Further, 20 mL of the dispersion liquid obtained above was filled into a sample bottle (inner diameter: 25 mm×outer diameter: 27.5 mm×height: 72 mm), and measurement of a transmission scattering light intensity ΔT % at a height of 39-40 mm of the sample bottle was started using a TURBISCAN Tower (manufactured by Formulaction) (with a temperature set to 25° C.), and a value obtained after 10 minutes after the start of the measurement was defined as the transmission scattering light intensity ΔT % for each additive. The transmission scattering light intensities ΔT % of the additives and the dispersion state of the edaravone particles in the additive solutions are shown in the following table.
# Contact angle test = type: physicochemical; details: edaravone saturated aqueous solution with 0.1% (w/v) additive on edaravone tablet; 1 μL, after 3.1 seconds
# Experimental: Here, “80 degrees or less” means a range of 0-80 degrees. […] Here, the edaravone tablet refers to an edaravone tablet obtained by compression-molding 120 mg of edaravone (D50: 37 D90: 143 μm) in a flat punch having a diameter of 8 mm at a tableting pressure of 800 kg, and measurement of the contact angle refers to a case where the contact angle is measured using a contact angle measuring device (CAX-150 manufactured by Kyowa Interface Science) under the following conditions. • Syringe used: glass, 1 mL • Needle: 23 gauge • Liquid volume: 1 μL • Measurement time: after 3.1 seconds
# 120 mg of an edaravone drug substance (D50: 37 μm, D90: 143 μm) was compression-molded using a single-punch tableting machine (Compaction Analyzer) (punch: flat punch having a diameter of 8 mm; tableting pressure: 800 kgf), and an edaravone tablet for contact angle measurement was obtained.
# Edaravone saturated aqueous solutions in which drug product additives described in the following table that are substances having a function capable of dispersing solid particles in a liquid were dissolved 0.1% (w/v) therein were prepared at a room temperature, and contact angles with respect to the edaravone tablet prepared above were measured using a contact angle measurement device (Kyowa Interface Science, Inc., CAX-150). […]
Molecule,Dispersion State of Edaravone [1],Transmission Scattering light Intensity ΔT % [1] [%],Contact Angle (Contact angle test) [degrees]
OC[C@@H](O)[C@@H](O)[C@H](O)[C@@H](O)CO [D-sorbitol],not dispersed,0.000,83.3
Polysorbate 80,dispersed,6.151,53.1

# Reference: US11826352B2, “Edaravone suspension for oral administration” (MITSUBISHI TANABE PHARMA CORPORATION, priority 2018, dated 2023)
